pKd: −log10 of the molar value.
What was measured:
[1] = target: T1, PKAR3 (protein kinase A regulatory subunit 3) (Leishmania donovani, UniProt A0A3S7X836); experiment: isothermal titration calorimetry (ITC), one-site model; assay type: binding
T1 construct: gene LdCL_340034800

[2] = target: subpellicular microtubules (SPMT) of L. donovani promastigotes, detected as β-tubulin (L. donovani (endogenous in promastigotes)); experiment: FRET or BRET; fixed L. donovani promastigotes labelled with primary antibodies and secondary antibodies with Alexa Fluor 568 (donor) and 647 (acceptor); corrected acceptor FRET (Youvan), confocal microscopy

T1 sequence (A0A3S7X836 entry or part of it): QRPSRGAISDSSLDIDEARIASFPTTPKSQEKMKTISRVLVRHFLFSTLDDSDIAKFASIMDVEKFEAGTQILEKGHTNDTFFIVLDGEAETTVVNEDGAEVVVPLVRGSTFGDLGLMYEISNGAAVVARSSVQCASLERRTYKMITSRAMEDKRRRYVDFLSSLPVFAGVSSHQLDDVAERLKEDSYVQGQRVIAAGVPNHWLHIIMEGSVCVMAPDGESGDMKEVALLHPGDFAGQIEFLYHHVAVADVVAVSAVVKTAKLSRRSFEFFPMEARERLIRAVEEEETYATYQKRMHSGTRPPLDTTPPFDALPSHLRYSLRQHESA

Compound	pKd [1]	decrease of FRET-positive pixels per cell against PKAR3FL [2] [%]
N#Cc1cn([C@@H]2O[C@H](CO)[C@@H](O)[C@H]2O)c2ncnc(N)c12 [Toyo, Toyocamycin]	8.42	
L. donovani PKAR3 lacking the N-terminal 90 amino acids (domain or fragment)		30
N#Cc1cn([C@@H]2O[C@H](CO)[C@@H](O)[C@H]2O)c2ncnc(O)c12 [7-CN-7-C-Ino, 7-cyano-7-deaza-inosine]	9.00	
